Source: US20220220106A1, “QUINOLINE COMPOUNDS AND PHARMACEUTICAL COMPOSITIONS AND USES THEREOF” (Academy of Military Medical Sciences, priority 2019, published 2022)

What was measured:
mTORC2 = molecular target: T1, mTORC2 (Homo sapiens, UniProt P42345); experiment: Western blot, phosphorylation of Ser473 of Akt in RD cells (mTORC2 inhibition); type: cell-based; details: 20 μM, 2 hours, Western blot (FIG. 1)
T1 construct: endogenous in cells; host or cells: RD cells
Protocol: In order to test the inhibitory activity of the synthesized compounds on the two mTOR complexes, the inhibitory activity experiments of mTORC1 and mTORC2 were carried out. Since mTORC1 and mTORC2 exerted their function by activating the phosphorylation of downstream substrates, the inhibitory activity of the compounds on mTORC1 and mTORC2 could be determined by detecting the phosphorylation levels of the Thr389 site of mTORC1 downstream substrate p70S6K1 and the Ser473 site of mTORC2 downstream substrate Akt.
Pretreatment of Compound:
(1) RD cells were cultured in DMEM medium containing 10% FBS and 1×PS (penicillin and streptomycin were at concentrations 100 IU and 100 μg/mL, respectively) at 37° C. and 5% CO2.
(2) The RD cells (5×10^5 cells/2 mL medium) were inoculated into a 6-well plate and incubated at 37° C. and 5% CO2 for 24 hours.
(3) The cells were washed once with PBS, and the cells were cultured in serum-free medium without nutrients overnight.
(4) Formulation of compounds: […]
Preparation of insulin medium: Insulin was diluted in DMEM medium containing 10% FBS and 1×PS so that the final concentration of insulin was 167 nM.
Pretreatment of compound to be tested: The compound was dissolved in DMSO so that the concentration of the test compound was 20 mM, and the compound was diluted in 167 nM insulin medium to reach a concentration of 20 μM.
Preparation of rapamycin solution: Rapamycin was dissolved in DMSO to a concentration of 10 mM, and the rapamycin was diluted in 167 nM insulin medium to reach a concentration of 20 μM.
(5) The serum-free medium in each well was removed.
(6) 2 mL of complete medium containing DMSO was added to each well as a control carrier. The final concentration of DMSO was 0.2%.
(7) 2 mL of 20 μM rapamycin solution and 20 μM the compound to be tested were added to the designated wells, respectively. The final concentration of DMSO was 0.2%.
(8) The cells were incubated for 2 hours at 37° C. and 5% CO2.
Protein extraction and concentration determination:
(1) The cells were washed once with refrigerated PBS, and then the PBS was discarded.
(2) 150 μL of cell extraction buffer (RIPA, […], catalog number: C1053) was transferred into each well to lyse the cells, and then the resulting cell solution were incubated on ice for 30 minutes.
(3) Centrifugation was performed at 14000 rpm (13000× g) for 30 minutes at 4° C.
(4) The supernatant was transferred into a new eppendorf tube, and the cell lysate was stored at −80° C. before testing.
(5) The protein concentration was determined by BCA method.
Preparation of Buffer Solutions:
(1) 100× Protease inhibitor (Beyotime, catalog number: P1005): 1 mL of redistilled water was added to the protease inhibitor and stirred gently until the solid was completely dissolved.
(2) Lysis Buffer: […] of 100× protease inhibitor and 2× phosphatase inhibitor Cocktails PhosSTOP (Beyotime, catalog number: P1082) were added to 100 mL of the cell extract, and stirred gently until it was completely dissolved.
(3) Electrophoresis Running Buffer:
10×MOPS buffer: 52.33 g of MOPS, 30.29 g of Tris base, 10 mL of 0.5 mol/L EDTA (pH 8.5) and 5 g of SDS was dissolved in 400 mL of redistilled water, stirred to dissolve, and the pH was adjusted to 7.5, then redistilled water was added again to reach a volume of 500 mL; 1×MOPS: 100 mL of 10×MOPS was diluted with redistilled water to 1000 mL.
(4) 1× Transfer Buffer: […] of 10× transfer buffer (144 g of glucine, 30.3 g of trisbase, and distilled water were mixed to reach a volume of 1 L) and 400 mL of methanol were dissolved in 1500 mL of redistilled water, and then the redistilled water was added to reach a volume of 2000 mL. […]

[1] = system: Enterovirus 71 (EV71) H strain; experiment: In vitro anti-EV71 activity (antiviral activity in RD cells, CellTiter-Glo); type: cell-based; details: for IC50: Enterovirus A, 96 h, EV71 H strain, RD cells, 4 days, CellTiter-Glo, read-out: IC50; for in vitro anti-EV71 activity, in words: EV71, RD cells
Summary of the method: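 RD cells infected with 100TCID50 EV71 in DMEM+2% FBS, with compound in 10-point three-fold dilutions, cultured 4 days at 37° C. Cell viability by CellTiter-Glo luminescence; inhibition rate relative to cell control fitted to S-curve for IC50. TD50 derived likewise; SI=TD50/IC50.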

| SMILES | phosphorylation expression level of Akt (mTORC2) | IC50 [1] [nM] | in vitro anti-EV71 activity, in words [1] |
| --- | --- | --- | --- |
| O=c1ccc2cnc3ccc(-c4ccc(N5CCCC5)nc4)cc3c2n1-c1cccc(C(F)(F)F)c1 [HTL-7-20, 9-[3-(6-pyrrolidinyl)pyridyl]-2-oxo-1-[3-(trifluoromethyl)phenyl]-1,2-dihydrobenzo[h][1,6]naphthyridine] | significantly down-regulate | 100 ± 10 |  |
| O=c1ccc2cnc3ccc(-c4cccnc4F)cc3c2n1-c1cccc(C(F)(F)F)c1 [HTL-6-48, 9-[3-(2-fluoro)pyridyl]-2-oxo-1-[3-(trifluoromethyl)phenyl]-1,2-dihydrobenzo [h][1,6]naphthyridine] | significantly down-regulate | 59 | high activity |
| O=C1Cc2cc(-c3ccc4ncc5ccc(=O)n(-c6cccc(C(F)(F)F)c6)c5c4c3)ccc2N1 [HTL-7-04, 9-[5-(2-oxo)indolyl]-2-oxo-1-[3-(trifluoromethyl)phenyl]-1,2-dihydrobenzo[h][1,6]naphthyridine] | significantly down-regulate | 10500 ± 560 |  |
| O=c1ccc2cnc3ccc(-c4ccc(F)nc4)cc3c2n1-c1cccc(C(F)(F)F)c1 [HTL-7-01, 9-[3-(6-fluoro)pyridyl]-2-oxo-1-[3-(trifluoromethyl)phenyl]-1,2-dihydrobenzo[h][1,6]naphthyridine] | significantly down-regulate | 70 ± 10 |  |
| CCC(=O)Nc1ccc(-c2ccc3ncc4ccc(=O)n(-c5cccc(C(F)(F)F)c5)c4c3c2)cn1 [HTL-6-45, 9-[3-(6-propionylamino)pyridyl]-2-oxo-1-[3-(trifluoromethyl)phenyl]-1,2-dihydrobenzo[h][1,6]naphthyridine] | significantly down-regulate | 27 ± 10 |  |
| O=C(Nc1ccc(-c2ccc3ncc4ccc(=O)n(-c5cccc(C(F)(F)F)c5)c4c3c2)cn1)OCc1ccccc1 [HTL-7-14, 9-[3-(6-benzyloxyamido)pyridyl]-2-oxo-1-[3-(trifluoromethyl)phenyl]-1,2-dihydrobenzo[h][1,6]naphthyridine] | significantly down-regulate | 23700 ± 1020 |  |
| O=C(Cc1ccccc1)Nc1ccc(-c2ccc3ncc4ccc(=O)n(-c5cccc(C(F)(F)F)c5)c4c3c2)cn1 [HTL-7-10, 9-[3-(6-phenylacetylamino)pyridyl]-2-oxo-1-[3-(trifluoromethyl)phenyl]-1,2-dihydrobenzo[h][1,6]naphthyridine] | significantly down-regulate | 390 ± 180 |  |
| O=c1ccc2cnc3ccc(C4=CCC5(CC4)OCCO5)cc3c2n1-c1cccc(C(F)(F)F)c1 [HTL-7-13, 9-(1,4-dioxa-spiro[4.5]dec-7-en-8-yl)-2-oxo-1-[3-(trifluoromethyl)phenyl]-1,2-dihydrobenzo[h][1,6]naphthyridine] | significantly down-regulate | 26300 ± 12900 |  |
| COc1ccc(-c2ccc3ncc4ccc(=O)n(-c5cccc(C(F)(F)F)c5)c4c3c2)cn1 [HTL-7-03, 9-[3-(6-methoxy)pyridyl]-2-oxo-1-[3-(trifluoromethyl)phenyl]-1,2-dihydrobenzo[h][1,6]naphthyridine] | significantly down-regulate | 40 ± 10 |  |
| COc1ccc(CC(=O)Nc2ccc(-c3ccc4ncc5ccc(=O)n(-c6cccc(C(F)(F)F)c6)c5c4c3)cn2)cc1 [HTL-7-11, 9-{3-[6-(4-methoxy)phenylacetylamino]pyridyl}-2-oxo-1-[3-(trifluoromethyl)phenyl]-1,2-dihydrobenzo[h][1,6]naphthyridine] | significantly down-regulate | 95 ± 7 |  |
| CCCC(=O)Nc1ccc(-c2ccc3ncc4ccc(=O)n(-c5cccc(C(F)(F)F)c5)c4c3c2)cn1 [HTL-7-05, 9-[3-(6-butyrylamino)pyridyl]-2-oxo-1-[3-(trifluoromethyl)phenyl]-1,2-dihydrobenzo[h][1,6]naphthyridine] | significantly down-regulate | 130 ± 60 |  |
| COc1cc(-c2ccc3ncc4ccc(=O)n(-c5cccc(C(F)(F)F)c5)c4c3c2)cnc1N [HTL-7-19, 9-[3-(6-amino-5-methoxy)pyridyl]-2-oxo-1-[3-(trifluoromethyl)phenyl]-1,2-dihydrobenzo[h][1,6]naphthyridine] | significantly down-regulate | 45 ± 10 |  |
| CN1CCN(c2ccc(-c3ccc4ncc5ccc(=O)n(-c6cccc(C(F)(F)F)c6)c5c4c3)cn2)CC1 [HTL-7-17, 9-{3-[6-(4-methylpiperazin-1-yl)pyridyl]}-2-oxo-1-[3-(trifluoromethyl)phenyl]-1,2-dihydrobenzo[h][1,6]naphthyridine] | significantly down-regulate | 100 ± 30 |  |
| O=c1ccc2cnc3ccc(-c4ccc(N5CCOCC5)nc4)cc3c2n1-c1cccc(C(F)(F)F)c1 [HTL-7-18, 9-[3-(6-morpholin-4-yl)pyridyl]-2-oxo-1-[3-(trifluoromethyl)phenyl]-1,2-dihydrobenzo[h][1,6]naphthyridine] | significantly down-regulate | 1800 ± 1170 |  |
| Cc1ncccc1-c1ccc2ncc3ccc(=O)n(-c4cccc(C(F)(F)F)c4)c3c2c1 [HTL-6-49, 9-[3-(2-methyl)pyridyl]-2-oxo-1-[3-(trifluoromethyl)phenyl]-1,2-dihydrobenzo[h][1,6]naphthyridine] | significantly down-regulate | 70 ± 10 |  |
| O=c1ccc2cnc3ccc(-c4cc[nH]n4)cc3c2n1-c1cccc(C(F)(F)F)c1 [HTL-6-50, 9-[(1H)-3-pyrazolyl]-2-oxo-1-[3-(trifluoromethyl)phenyl]-1,2-dihydrobenzo[h][1,6]naphthyridine] | significantly down-regulate | > 200000 |  |
| CC(=O)/C=C/c1cnc2ccc(-c3ccc(C)nc3)cc2c1Nc1cccc(C(F)(F)F)c1 [HTL-2-38, (E)-6-[3-(6-methyl)pyridyl]-4-[3-(trifluoromethyl)phenyl]aminoquinoline-3-butenone] |  | 2850 ± 1200 | moderate anti-EV71 activity |
| NC(=O)/C=C/c1ccc2ncc3oc(=O)n(-c4cccc(C(F)(F)F)c4)c3c2c1 [HTL-6-30, (E)-8-(2-carbamoyl-vinyl)-1-[3-(trifluoromethyl)phenyl]oxazolo[5,4-c]quinolin-2(1H)-one] |  | 3700 ± 210 | moderate inhibitory activity |
